Values belong to the compound of their own block, whether it stands above or below them.
Test system: 521955-158-R2-J5-PDC complex spheroid growth, % test/control
Assay: Anticancer human tumor 521955-158-R2-J5-PDC patient-derived pancreatic carcinoma cell line growth inhibition [Asc]
Conditions: for IC50: curve of first compound; for viability, T/C: stronger effect = lower value
How it was run: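 Spheroid model: tumor line + HUVEC + hMSC. Single agents and combinations; top conc. at/near clinical Cmax (10 microM if undetermined), half-log dilutions. DMSO stocks at 800-fold test concentration.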

[1] = second compound 0.1 µM, first compound 0.000949 µM
[2] = second compound 0.1 µM, first compound 0.003 µM
[3] = second compound 0.1 µM, first compound 0.00949 µM
[4] = second compound 0.1 µM, first compound 0.03 µM
[5] = second compound 0.1 µM, first compound 0.0949 µM
[6] = second compound 0.1 µM, first compound 0.3 µM
[7] = second compound 0.316 µM, first compound 0.000949 µM
[8] = second compound 0.316 µM, first compound 0.003 µM
[9] = second compound 0.316 µM, first compound 0.00949 µM
[10] = second compound 0.316 µM, first compound 0.03 µM
[11] = second compound 0.316 µM, first compound 0.0949 µM
[12] = second compound 0.316 µM, first compound 0.3 µM
[13] = second compound 1 µM, first compound 0.000949 µM
[14] = second compound 1 µM, first compound 0.003 µM
[15] = second compound 1 µM, first compound 0.00949 µM
[16] = second compound 1 µM, first compound 0.03 µM
[17] = second compound 1 µM, first compound 0.0949 µM
[18] = second compound 1 µM, first compound 0.3 µM
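Further: spheroids exposed to agents for 7 days before readout.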
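Wherever viability, T/C is given: 100% = DMSO vehicle control viability.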

- IC50 (second compound 0.01 µM): 5.34 nM
- IC50 (second compound 0.0316 µM): 8.62 nM
- IC50 (second compound 0.1 µM): 44.6 nM
- IC50 (second compound 0.316 µM): 23.4 nM
- IC50 (second compound 1 µM): 47.4 nM
Compound: NC(=O)C(=Cn1cnc(-c2cc(C(F)(F)F)cc(C(F)(F)F)c2)n1)c1cncnc1 + CNC(C)C(=O)NC1CN(S(=O)(=O)c2cccc(S(=O)(=O)N3CCC4CCC(C(=O)NC(c5ccccc5)c5ccccc5)N4C(=O)C(NC(=O)C(C)NC)C3)c2)CCC2CCC(C(=O)NC(c3ccccc3)c3ccccc3)N2C1=O
- viability, T/C (second compound 0.01 µM, first compound 0.000949 µM): 96.9%
- viability, T/C (second compound 0.01 µM, first compound 0.003 µM): 60.7%
- viability, T/C (second compound 0.01 µM, first compound 0.00949 µM): 39%
- viability, T/C (second compound 0.01 µM, first compound 0.03 µM): 43%
- viability, T/C (second compound 0.01 µM, first compound 0.0949 µM): 37.4%
- viability, T/C (second compound 0.01 µM, first compound 0.3 µM): 34.8%
- viability, T/C (second compound 0.0316 µM, first compound 0.000949 µM): 84.4%
- viability, T/C (second compound 0.0316 µM, first compound 0.003 µM): 91.9%
- viability, T/C (second compound 0.0316 µM, first compound 0.00949 µM): 46.5%
- viability, T/C (second compound 0.0316 µM, first compound 0.03 µM): 36.5%
- viability, T/C (second compound 0.0316 µM, first compound 0.0949 µM): 34.8%
- viability, T/C (second compound 0.0316 µM, first compound 0.3 µM): 27.4%
- viability, T/C [1]: 97.8%
- viability, T/C [2]: 77.9%
- viability, T/C [3]: 72.9%
- viability, T/C [4]: 52.6%
- viability, T/C [5]: 42.6%
- viability, T/C [6]: 27.1%
- viability, T/C [7]: 86.2%
- viability, T/C [8]: 76%
- viability, T/C [9]: 39.8%
- viability, T/C [10]: 61.5%
- viability, T/C [11]: 40.7%
- viability, T/C [12]: 25.9%
- viability, T/C [13]: 108%
- viability, T/C [14]: 89.7%
- viability, T/C [15]: 77.2%
- viability, T/C [16]: 58.6%
- viability, T/C [17]: 36.1%
- viability, T/C [18]: 32.3%

- IC50 (second compound 0.03 µM): 1500 nM
- IC50 (second compound 0.0949 µM): > 3000 nM
- IC50 (second compound 0.3 µM): 1310 nM
- IC50 (second compound 0.949 µM): > 3000 nM
- IC50 (second compound 3 µM): > 3000 nM
Compound: Cc1nc(N2CCC3(CC2)COC(C)C3N)c(CO)nc1Sc1ccnc(N)c1Cl (stereo not given) + CCN1C(C(=O)NC23CCC(C(=O)O)(CC2)CC3)C(c2cccc(Cl)c2F)C2(C(=O)Nc3cc(Cl)ccc32)C12CCCCC2
- viability, T/C (second compound 0.03 µM, first compound 0.00949 µM): 75.7%
- viability, T/C (second compound 0.03 µM, first compound 0.03 µM): 75.9%
- viability, T/C (second compound 0.03 µM, first compound 0.0949 µM): 65.8%
- viability, T/C (second compound 0.03 µM, first compound 0.3 µM): 60.8%
- viability, T/C (second compound 0.03 µM, first compound 0.949 µM): 47.5%
- viability, T/C (second compound 0.03 µM, first compound 3 µM): 50.3%
- viability, T/C (second compound 0.0949 µM, first compound 0.00949 µM): 88.3%
- viability, T/C (second compound 0.0949 µM, first compound 0.03 µM): 95.6%
- viability, T/C (second compound 0.0949 µM, first compound 0.0949 µM): 70.2%
- viability, T/C (second compound 0.0949 µM, first compound 0.3 µM): 80.2%
- viability, T/C (second compound 0.0949 µM, first compound 0.949 µM): 70.8%
- viability, T/C (second compound 0.0949 µM, first compound 3 µM): 57.6%
- viability, T/C (second compound 0.3 µM, first compound 0.00949 µM): 88.5%
- viability, T/C (second compound 0.3 µM, first compound 0.03 µM): 87.1%
- viability, T/C (second compound 0.3 µM, first compound 0.0949 µM): 71.2%
- viability, T/C (second compound 0.3 µM, first compound 0.3 µM): 59.2%
- viability, T/C (second compound 0.3 µM, first compound 0.949 µM): 62%
- viability, T/C (second compound 0.3 µM, first compound 3 µM): 37.8%
- viability, T/C (second compound 0.949 µM, first compound 0.00949 µM): 97.7%
- viability, T/C (second compound 0.949 µM, first compound 0.03 µM): 87.8%
- viability, T/C (second compound 0.949 µM, first compound 0.0949 µM): 85%
- viability, T/C (second compound 0.949 µM, first compound 0.3 µM): 67.2%
- viability, T/C (second compound 0.949 µM, first compound 0.949 µM): 68.1%
- viability, T/C (second compound 0.949 µM, first compound 3 µM): 69.5%
- viability, T/C (second compound 3 µM, first compound 0.00949 µM): 139%
- viability, T/C (second compound 3 µM, first compound 0.03 µM): 122%
- viability, T/C (second compound 3 µM, first compound 0.0949 µM): 101%
- viability, T/C (second compound 3 µM, first compound 0.3 µM): 96.6%
- viability, T/C (second compound 3 µM, first compound 0.949 µM): 90.6%
- viability, T/C (second compound 3 µM, first compound 3 µM): 99%

- IC50 (second compound 0.1 µM): 1.94 nM
- IC50 (second compound 0.316 µM): < 0.949 nM
- IC50 (second compound 1 µM): 1.36 nM
- IC50 (second compound 3.16 µM): 1.25 nM
- IC50 (second compound 10 µM): 25.3 nM
Compound: NC(=O)C(=Cn1cnc(-c2cc(C(F)(F)F)cc(C(F)(F)F)c2)n1)c1cncnc1 + Cc1c(S(C)(=O)=O)c(-c2cc(F)cc(N3CCN(c4ccc(NS(=O)(=O)c5ccc(NC(CCN6CCC(C(=O)OCCCP(=O)(O)O)CC6)CSc6ccccc6)c(S(=O)(=O)C(F)(F)F)c5)cc4)CC3)c2)c(-c2ccc(Cl)cc2)n1C(C)C
- viability, T/C [1]: 77.2%
- viability, T/C [2]: 33.3%
- viability, T/C [3]: 28.4%
- viability, T/C [4]: 20.9%
- viability, T/C [5]: 22.3%
- viability, T/C [6]: 28%
- viability, T/C [7]: 44.5%
- viability, T/C [8]: 48%
- viability, T/C [9]: 30%
- viability, T/C [10]: 23.2%
- viability, T/C [11]: 17.2%
- viability, T/C [12]: 24.1%
- viability, T/C [13]: 54.3%
- viability, T/C [14]: 40.5%
- viability, T/C [15]: 21.4%
- viability, T/C [16]: 17.7%
- viability, T/C [17]: 14.4%
- viability, T/C [18]: 14.8%
- viability, T/C (second compound 3.16 µM, first compound 0.000949 µM): 53.2%
- viability, T/C (second compound 3.16 µM, first compound 0.003 µM): 40%
- viability, T/C (second compound 3.16 µM, first compound 0.00949 µM): 22.6%
- viability, T/C (second compound 3.16 µM, first compound 0.03 µM): 13.5%
- viability, T/C (second compound 3.16 µM, first compound 0.0949 µM): 9.75%
- viability, T/C (second compound 3.16 µM, first compound 0.3 µM): 13.1%
- viability, T/C (second compound 10 µM, first compound 0.000949 µM): 143%
- viability, T/C (second compound 10 µM, first compound 0.003 µM): 106%
- viability, T/C (second compound 10 µM, first compound 0.00949 µM): 91.4%
- viability, T/C (second compound 10 µM, first compound 0.03 µM): 40.3%
- viability, T/C (second compound 10 µM, first compound 0.0949 µM): 17.1%
- viability, T/C (second compound 10 µM, first compound 0.3 µM): 10.8%

— PubChem BioAssay AID1963430 (Molecular Pharmacology Branch, DTP, NCI, 2024)
